A short description of test [1]: Bocillin-FL fluorescence polarization competition binding assay, A. baumannii PBP3. Conditions: fluorescence polarization competition binding assay using Bocillin-FL; column 3; read-out: 4. baumannii PBP1a Potency. In outline:
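A. baumannii PBP2 (2.5 μM) and PBP3 (0.2 μM) were run in 25 mM Tris pH 8.0 buffer with Tween 20; E. coli PBP3 (1.5 μM) and N. gonorrhoeae PBP2 ([…]) in 50 mM Hepes pH 8.0 buffer.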

In test [2] the test system is N. gonorrhoeae WHO Z. Put plainly: Liquid broth MIC in Fastidious broth. The class given is cell-based. The note with it: Neisseria gonorrhoeae, read-out: Minimum Inhibitory Concentration, N. gonorrhoeae WHO Z. In outline: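 Broth microdilution in Fastidious broth with 2-fold compound series; inoculum from 24 h chocolate agar colonies, 5×10^5 CFU/mL start. Incubated ~24 hours at 36° C, 5% CO2. MIC read visually as lowest concentration giving <10% growth versus full-growth wells; strains carry mosaic PBP2.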

SMILES strings stand for the structures. ≈ marks a conversion by molar mass, not a printed value.

As to `NCCN1CCN(C(=O)N[C@H](C(=O)N[C@H]2Cc3cccc(C(=O)O)c3OB2O)c2ccc(O)cc2Cl)C(=O)C1=O` (single isomer, unassigned) [Example 85], in test [1], the EC50 was > 100 µM. In addition, the MIC in test [2] is > 64 µg/mL.

`NCCN1CCN(C(=O)N[C@@H](C(=O)N[C@H]2Cc3cccc(C(=O)O)c3OB2O)c2ccc(O)cc2Cl)C(=O)C1=O` (single isomer, unassigned) [Example 86]: the EC50 in test [1] is 10 to 30 µM. In addition, the MIC in test [2] is > 64 µg/mL.

As for `O=C(O)c1ccc(C(NC(=O)N2CCN(CCNC(=O)c3ccc(O)c(O)c3Cl)C(=O)C2=O)C(=O)N[C@H]2Cc3ccc(F)c(C(=O)O)c3OB2O)cc1F` (stereo partly drawn) [Example 11, (3R)-3-(2-(4-carboxy-3-fluorophenyl)-2-(4-(2-(2-chloro-3,4-dihydroxybenzamido)ethyl)-2,3-dioxopiperazine-1-carboxamido)acetamido)-7-fluoro-2-hydroxy-3,4-dihydro-2H-benzo[e][1,2]oxaborinine-8-carboxylic acid], the EC50 in test [1] lay within 10 to 30 µM. Also, the MIC in test [2] was in the range of 16 to 32 µg/mL (≈ 20.7 to 41.4 µM).

As to `CCN1CCN(C(=O)NC(C(=O)N[C@H]2Cc3ccc(F)c(C(=O)O)c3OB2O)c2ccc(C(=O)O)cc2)C(=O)C1=O` (stereo partly drawn) [Example 15, (3R)-3-(2-(4-carboxyphenyl)-2-(4-ethyl-2,3-dioxopiperazine-1-carboxamido)acetamido)-7-fluoro-2-hydroxy-3,4-dihydro-2H-benzo[e][1,2]oxaborinine-8-carboxylic acid], the EC50 in test [1] was > 100 µM. The MIC in test [2] is 1 to 2 µg/mL (≈ 1.75 to 3.51 µM).

As to `CCN1CCN(C(=O)NC(C(=O)N[C@H]2Cc3cccc(C(=O)O)c3OB2O)c2ccc(C(=O)O)c(F)c2)C(=O)C1=O` (stereo partly drawn) [Example 31, (3R)-3-(2-(4-carboxy-3-fluorophenyl)-2-(4-ethyl-2,3-dioxopiperazine-1-carboxamido)acetamido)-2-hydroxy-3,4-dihydro-2H-benzo[e][1,2]oxaborinine-8-carboxylic acid], the EC50 in test [1] was < 10 µM. For the same compound, the MIC in test [2] was 1 to 2 µg/mL (≈ 1.75 to 3.51 µM).

With `O=C(O)c1ccc(C(NC(=O)c2c(F)cc(O)c(O)c2Cl)C(=O)N[C@H]2Cc3ccc(F)c(C(=O)O)c3OB2O)cc1F` (stereo partly drawn) [Example 71, (3R)-3-(2-(4-carboxy-3-fluorophenyl)-2-(2-chloro-6-fluoro-3,4-dihydroxybenzamido)acetamido)-7-fluoro-2-hydroxy-3,4-dihydro-2H-benzo[e][1,2]oxaborinine-8-carboxylic acid], the EC50 in test [1] is > 100 µM. In addition, the MIC in test [2] is > 64 µg/mL.

For the compound `CCN1CCN(C(=O)NC(C(=O)N[C@H]2Cc3cccc(C(=O)O)c3OB2O)c2cccc(NC(=O)c3ccc(O)c(O)c3Cl)c2)C(=O)C1=O` (stereo partly drawn) [Example 73, (3R)-3-(2-(3-(2-chloro-3,4-dihydroxybenzamido)phenyl)-2-(4-ethyl-2,3-dioxopiperazine-1-carboxamido)acetamido)-2-hydroxy-3,4-dihydro-2H-benzo[e][1,2]oxaborinine-8-carboxylic acid], the EC50 in test [1] is < 10 µM. Moreover, the MIC in test [2] was > 64 µg/mL.

`CCN1CCN(C(=O)NC(C(=O)N[C@H]2Cc3cccc(C(=O)O)c3OB2O)c2ccc(O)c(NC(=O)c3ccc(O)c(O)c3Cl)c2)C(=O)C1=O` (stereo partly drawn) [Example 74, (3R)-3-(2-(3-(2-chloro-3,4-dihydroxybenzamido)-4-hydroxyphenyl)-2-(4-ethyl-2,3-dioxopiperazine-1-carboxamido)acetamido)-2-hydroxy-3,4-dihydro-2H-benzo[e][1,2]oxaborinine-8-carboxylic acid]: the EC50 in test [1] is < 10 µM. In addition, the MIC in test [2] is > 64 µg/mL.

As for `CC(C)(C)[C@@H](NC(=O)N1CCN(CCNC(=O)c2c(F)cc(O)c(O)c2Cl)C(=O)C1=O)C(=O)N[C@H]1Cc2ccc(F)c(C(=O)O)c2OB1O` [Example 80, (R)-3-((R)-2-(4-(2-(2-chloro-6-fluoro-3,4-dihydroxybenzamido)ethyl)-2,3-dioxopiperazine-1-carboxamido)-3,3-dimethylbutanamido)-7-fluoro-2-hydroxy-3,4-dihydro-2H-benzo[e][1,2]oxaborinine-8-carboxylic acid], in test [1], the EC50 was < 10 µM. Also, the MIC in test [2] is > 64 µg/mL.

The record behind these values is patent publication US20230114728A1 (Venatorx Pharmaceuticals, Inc., priority 2019, published 2023).
